Test results as given in ChEMBL document CHEMBL4184140, “Expanding the tetrahydroquinoline pharmacophore” (Bioorg Med Chem Lett, 2017).
Calls of active or inactive are those of the source. No cut-off for these calls is given here.

Columns and labels:
IMR-32 [1] = assay: Neurotrophic activity in human IMR32 cells assessed as length of neurite outgrown after 96 hrs by bright field microscopic analysis; type: functional, cell-based
MCF7 = assay: Antiproliferative activity against human MCF7 cells; type: functional, cell-based
DU-145 = assay: Antiproliferative activity against human DU145 cells; type: functional, cell-based
A549 = assay: Antiproliferative activity against human A549 cells; type: functional, cell-based
HepG2 = assay: Antiproliferative activity against human HepG2 cells; type: functional, cell-based
IMR-32 [2] = assay: Cytotoxicity against human IMR32 cells after 48 hrs by SRB assay; type: cell-based; settings: IMR-32, 48 h
IMR-32 [3] = assay: Neurotrophic activity in human IMR32 cells assessed as appearance of neurites at 1 to 10 uM after 96 hrs by bright field microscopic analysis; type: functional, cell-based
IMR-32 [4] = assay: Neurotrophic activity in human IMR32 cells assessed as increase in BDNF mRNA level at 10 uM by RT-PCR analysis; type: functional, cell-based
IMR-32 [5] = assay: Neurotrophic activity in human IMR32 cells assessed as increase in NGF mRNA level at 10 uM by RT-PCR analysis; type: functional, cell-based
IMR-32 [6] = assay: Neurotrophic activity in human IMR32 cells assessed as increase in BDNF protein level at 10 uM by Western blot method; type: functional, cell-based
IMR-32 [7] = assay: Neurotrophic activity in human IMR32 cells assessed as increase in NGF protein level at 10 uM by Western blot method; type: functional, cell-based
IMR-32 [8] = assay: Neurotrophic activity in human IMR32 cells assessed as induction of differentiation at 10 uM after 96 hrs by bright filed microscopic method; type: functional, cell-based
IMR-32 [9] = assay: Neurotrophic activity in human IMR32 cells assessed as induction of differentiation at 1 uM after 96 hrs by bright filed microscopic method; type: functional, cell-based
IMR-32 [10] = assay: Neurotrophic activity in human IMR32 cells assessed as induction of differentiation at 50 uM after 96 hrs by bright filed microscopic method; type: functional, cell-based

Compound	Activity (IMR-32 [1])	Activity (MCF7)	Activity (DU-145)	Activity (A549)	Activity (HepG2)	IC50 (IMR-32 [2]) [µM]	Activity (IMR-32 [3])	Activity (IMR-32 [4])	Activity (IMR-32 [5])	Activity (IMR-32 [6])	Activity (IMR-32 [7])	Activity (IMR-32 [8])	Activity (IMR-32 [9])	Activity (IMR-32 [10])
O[C@@H]1[C@@H]2c3ccccc3N[C@H](c3cccc(Br)c3)[C@@H]2C[C@@H]1O	Dose-dependent effect	inactive	inactive	inactive	inactive	> 100	Active	Active	Active	Active	Active	Active		
C1=C[C@@H]2c3ccccc3N[C@H](c3ccccc3)[C@@H]2C1	Dose-dependent effect	inactive	inactive	inactive	inactive	> 100		Active	Active	Active	Active	Active	Active	
CC(=O)N1c2ccccc2[C@@H]2[C@@H](C[C@@H]3O[C@H]23)[C@H]1c1ccccc1	Dose-dependent effect	inactive	inactive	inactive	inactive	> 100		Active	Active	Active	Active	Active		
COC(=O)C[C@@H]1[C@H](C(=O)OC)c2ccccc2N(C(C)=O)[C@@H]1c1ccccc1	Dose-dependent effect	inactive	inactive	inactive	inactive	80.6		Active	Active	Active	Active	Active		Active
